Data as given in patent publication US20250144067A1, “PERSONALIZED STARVATION THERAPY FOR CANCER” (Faeth Therapeutics, Inc., priority 2021, published 2025).
Counter-ions that a name gives are not always drawn. Like-named read-outs stand apart in the source and are kept apart here.

Assays:
[1] = test system: NCI-H292 lung cancer cells; experiment: FDA drug screening, complete media vs cholesterol-free media without statin (TABLE 1); format: cell-based, human
[2] = test system: NCI-H292 lung cancer cells; experiment: FDA drug screening, complete media vs cholesterol-free media with simvastatin (TABLE 2); format: cell-based, human
[3] = Complete minus Cholesterol-free, >0 enhanced anti-cancer activity, about 0 neutral, <0 antagonist
[4] = NCI-H292 cells, cholesterol-free media without statin, FDA drug library screen
[5] = NCI-H292 cells, complete media, FDA drug library screen
[6] = NCI-H292 cells, cholesterol-free media with simvastatin 0.04 μM, FDA drug library screen (TABLE 2)
[7] = NCI-H292 cells, complete media, FDA drug library screen (TABLE 2)
[8] = complete media minus cholesterol-free media + simvastatin (0.04 μM), >0 enhanced anti-cancer activity, about 0 neutral, <0 antagonist
[9] = NCI-H292 cells, FDA drug library screen, cholesterol-free media with simvastatin 0.04 μM
[10] = NCI-H292 cells, FDA drug library screen, complete media
[11] = complete media vs cholesterol-free media + simvastatin (0.04 μM), >0 enhanced anti-cancer activity, about 0 neutral, <0 antagonist
[12] = NCI-H292 cells, cholesterol-free media without statin
[13] = complete vs cholesterol-free media, greater than 0 enhanced anti-cancer activity, about 0 neutral, below 0 antagonists
[14] = Complete minus Cholesterol-free, greater than 0 enhanced anti-cancer activity, about 0 neutral, below 0 antagonist
[15] = NCI-H292 cells, FDA drug library screen, cholesterol-free media without statin
[16] = Complete minus Cholesterol-free, greater than 0 enhanced anti-cancer activity, about 0 neutral, below 0 antagonists
[17] = NCI-H292 cells in cholesterol-free media without statin
[18] = NCI-H292 cells in complete media
[19] = NCI-H292 cells, drug in cholesterol-free media with simvastatin 0.04 μM
[20] = NCI-H292 cells, drug in complete media
[21] = complete media minus cholesterol-free media + simvastatin, >0 enhanced anti-cancer activity, about 0 neutral, <0 antagonist

Nc1nc2[nH]cc(CCc3ccc(C(=O)N[C@@H](CCC(=O)O)C(=O)O)cc3)c2c(=O)[nH]1 [Pemetrexed]
Difference [1, 3]: −0.01
Cholesterol-free [1, 4]: 0.1659
Complete [1, 5]: 0.1596
Cholesterol-free media + simvastatin (0.04 μM) [2, 6]: 0.2196
Complete Media [2, 7]: 0.2004
Difference [2, 8]: −0.02

Cc1cccn2c(=O)c(-c3nnn[nH]3)cnc12 [Pemirolast (potassium)]
Cholesterol-free [1, 4]: 0.8951
Complete [1, 5]: 1.011
Difference ([1]; complete vs cholesterol-free media, >0 enhanced anti-cancer activity, about 0 neutral, <0 antagonist): 0.12
Cholesterol-free media + simvastatin (0.04 μM) [2, 9]: 1.053
Complete Media [2, 10]: 0.9441
Difference [2, 11]: −0.11

Nc1nc2c(ncn2CCC(CO)CO)c(=O)[nH]1 [Penciclovir]
Cholesterol-free [1, 12]: 0.9605
Complete ([1]; NCI-H292 cells, complete media): 0.6394
Difference [1, 13]: −0.32
Cholesterol-free media + simvastatin (0.04 μM) [2, 6]: 1.351
Complete Media [2, 7]: 1.353
Difference [2, 8]: 0.00

OC1(c2ccc(Cl)c(C(F)(F)F)c2)CCN(CCCC(c2ccc(F)cc2)c2ccc(F)cc2)CC1 [Penfluridol]
Difference [1, 14]: −0.14
Cholesterol-free [1, 15]: 0.7419
Complete [1, 10]: 0.6047
Cholesterol-free media + simvastatin (0.04 μM) [2, 6]: 1.076
Complete Media [2, 7]: 1.033
Difference [2, 8]: −0.04

CC(C)(S)[C@@H](N)C(=O)O [Penicillamine]
Difference [1, 16]: −0.55
Cholesterol-free [1, 17]: 1.556
Complete [1, 18]: 1.005
Cholesterol-free media + simvastatin (0.04 μM) [2, 19]: 1.252
Complete Media [2, 20]: 1.083
Difference [2, 11]: −0.17

CC1(C)S[C@@H]2[C@H](NC(=O)Cc3ccccc3)C(=O)N2[C@H]1C(=O)O.CC1(C)S[C@@H]2[C@H](NC(=O)Cc3ccccc3)C(=O)N2[C@H]1C(=O)O.O.O.O.O.c1ccc(CNCCNCc2ccccc2)cc1 [Penicillin G benzathine (tetrahydrate)]
Difference [1, 16]: −0.54
Cholesterol-free [1, 17]: 1.6
Complete [1, 18]: 1.064
Cholesterol-free media + simvastatin (0.04 μM) [2, 19]: 1.321
Complete Media [2, 20]: 1.126
Difference [2, 11]: −0.20

N=C(N)c1ccc(OCCCCCOc2ccc(C(=N)N)cc2)cc1.O=S(=O)(O)CCO.O=S(=O)(O)CCO [Pentamidine (isethionate)]
Difference [1, 14]: −0.17
Cholesterol-free [1, 15]: 0.6432
Complete [1, 10]: 0.4688
Cholesterol-free media + simvastatin (0.04 μM) ([2]; NCI-H292 cells, cholesterol-free media with simvastatin 0.04 μM, cell growth value in FDA drug screen): 0.3285
Complete Media ([2]; NCI-H292 cells, complete media, cell growth value in FDA drug screen): 0.4548
Difference [2, 21]: 0.13

OC[C@H]1O[C@@H](n2cnc3c2NC=NC[C@H]3O)C[C@@H]1O [Pentostatin]
Cholesterol-free [1]: 1.242
Complete [1]: 0.8025
Difference [1]: −0.44
Cholesterol-free media + simvastatin (0.04 μM) [2]: 1.49
Complete Media [2]: 1.245
Difference [2]: −0.25

CC(=O)CCCCn1c(=O)c2c(ncn2C)n(C)c1=O [Pentoxifylline]
Difference [1, 3]: −0.26
Cholesterol-free [1, 12]: 1.143
Complete ([1]; NCI-H292 cells, complete media): 0.8845
Cholesterol-free media + simvastatin (0.04 μM) [2, 6]: 0.9442
Complete Media [2, 7]: 0.9268
Difference [2, 8]: −0.02

CCC(CC)[C@H](NC(C)=O)[C@@H]1[C@H](O)[C@@H](C(=O)O)C[C@H]1NC(=N)N.O.O.O [Peramivir (trihydrate)]
Cholesterol-free [1, 12]: 2.062
Complete ([1]; NCI-H292 cells, complete media): 1.606
Difference [1, 13]: −0.46
Cholesterol-free media + simvastatin (0.04 μM) [2, 9]: 1.025
Complete Media [2, 10]: 0.9283
Difference [2, 11]: −0.10

CC(C)=CCC/C(C)=C/CC/C(C)=C/C=C/C(C)=C/C(=O)O [Peretinoin]
Difference [1, 3]: −0.19
Cholesterol-free [1, 12]: 1.271
Complete ([1]; NCI-H292 cells, complete media): 1.084
Cholesterol-free media + simvastatin (0.04 μM) ([2]; NCI-H292 cells, FDA library drug in cholesterol-free media with simvastatin 0.04 μM): 1.273
Complete Media ([2]; NCI-H292 cells, FDA library drug in complete media): 0.971
Difference [2, 11]: −0.30

FC(F)(F)C(F)(F)C(F)(F)C(F)(F)C(F)(F)C(F)(F)C(F)(F)C(F)(F)Br [Perflubron]
Difference [1, 16]: −0.50
Cholesterol-free [1, 17]: 1.905
Complete [1, 18]: 1.408
Cholesterol-free media + simvastatin (0.04 μM) [2, 9]: 0.901
Complete Media [2, 10]: 1.248
Difference [2, 21]: 0.35

C1CCC(C(CC2CCCCN2)C2CCCCC2)CC1 (stereo not drawn) [Perhexiline maleate]
Difference [1, 14]: −0.14
Cholesterol-free [1, 15]: 1.139
Complete [1, 10]: 1.003
Cholesterol-free media + simvastatin (0.04 μM) [2, 6]: 0.8717
Complete Media [2, 7]: 0.811
Difference [2, 8]: −0.06

N#Cc1ccc2c(c1)N(CCCN1CCC(O)CC1)c1ccccc1S2 [Pericyazine]
Difference [1, 14]: −0.09
Cholesterol-free [1, 15]: 0.9265
Complete [1, 10]: 0.8353
Cholesterol-free media + simvastatin (0.04 μM) [2, 6]: 1.378
Complete Media [2, 7]: 1.353
Difference [2, 8]: −0.02
